According to ChEMBL document CHEMBL1201862, “PubChem BioAssay data set” (2004):
Where “and” joins values, the source holds several entries; their conditions need not be identical. Identical values can stand only once. Each block holds one compound with its values, some of them ahead of it. Calls of active or inactive are those of the source.

How the values were obtained:
[1] = biological target: Epstein-Barr nuclear antigen 1 (Epstein-Barr virus (strain B95-8) (HHV-4) (Human herpesvirus 4), UniProt P03211); assay: inhibition of EBV nuclear antigen 1 DNA binding – biochemical, fluorescence polarization, 1536-well, dose response (AID 2381); design: species or system human gammaherpesvirus 4;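 also: fluorescence polarization of a Cy5 DNA probe bound by EBNA-1 protein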
[2] = biological target: T1, Calpain-2 catalytic subunit (Sus scrofa, UniProt P43367); assay: m-calpain protease blockers, concentration series – biochemical, fluorogenic peptide substrate, dose response (AID 1420); type: functional
T1 sequence (P43367 whole entry): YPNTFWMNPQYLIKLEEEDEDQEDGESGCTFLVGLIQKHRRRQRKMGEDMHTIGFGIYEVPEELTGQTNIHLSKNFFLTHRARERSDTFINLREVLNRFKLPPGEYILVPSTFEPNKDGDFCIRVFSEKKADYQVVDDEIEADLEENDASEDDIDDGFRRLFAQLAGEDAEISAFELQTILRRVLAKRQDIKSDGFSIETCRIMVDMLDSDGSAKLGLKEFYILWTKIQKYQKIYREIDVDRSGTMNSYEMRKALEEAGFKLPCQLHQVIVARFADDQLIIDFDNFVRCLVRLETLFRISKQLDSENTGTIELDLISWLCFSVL

[3] = biological target: Lytic switch protein BZLF1 (Epstein-Barr virus (strain B95-8) (HHV-4) (Human herpesvirus 4), UniProt P03206); assay: inhibition of BZLF1 ZTA DNA binding – biochemical, fluorescence polarization, Epstein-Barr virus, 1536-well, counter-screen for EBNA-1 inhibitor project, dose response (AID 2377); design: species or system human gammaherpesvirus 4;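 also: fluorescence polarization of Cy5-labelled ZRE DNA probe bound by purified Zta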
[4] = Counterscreen for IDE inhibitors: Luminescence-based cell-based high throughput dose response assay to identify compounds that are cytotoxic to HEK cells. [Related pubchem assays: 434962 (Primary screen (IDE inhibitors in singlicate)), 449730 (Counterscreen (Cytotoxicity in triplicate)), 435028 (Confirmation (IDE inhibitors in triplicate)) …; type: functional; conditions: HEK293
[5] = biological target: T2, Dual specificity protein phosphatase 6 (Rattus norvegicus, UniProt Q64346)
T2 sequence (Q64346 whole entry): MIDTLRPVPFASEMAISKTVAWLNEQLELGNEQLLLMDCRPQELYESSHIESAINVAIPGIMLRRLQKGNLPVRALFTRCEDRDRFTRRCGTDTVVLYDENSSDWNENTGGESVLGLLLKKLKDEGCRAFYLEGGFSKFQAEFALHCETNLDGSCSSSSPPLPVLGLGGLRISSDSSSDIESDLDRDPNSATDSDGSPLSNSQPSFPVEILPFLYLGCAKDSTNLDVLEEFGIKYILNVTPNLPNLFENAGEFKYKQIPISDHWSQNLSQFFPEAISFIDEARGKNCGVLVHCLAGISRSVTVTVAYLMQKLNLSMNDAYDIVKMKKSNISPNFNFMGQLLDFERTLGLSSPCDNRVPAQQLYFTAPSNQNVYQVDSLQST

[6] = viability loss in Vero cells – cytotoxicity control for Vif-APOBEC3G degradation inhibitor project, dose response (AID 1117358); type: functional; conditions: Vero
NS3 = NS3 (Hepatitis C virus, UniProt A3EZJ3); assay: PubChem AID 2173; design: species or system Hepacivirus hominis
[7] = biological target: T3, Voltage-gated N-type calcium channel alpha-1B subunit/Amyloid beta A4 precursor protein-binding family A member 1 (Homo sapiens, UniProt Q00975+Q02410); type: protein assay
[8] = biological target: Heat shock cognate 71 kDa protein (Homo sapiens, UniProt P11142); assay: In Vitro Hsc70 Dose Response Fluorescence Polarization Assay. [Related pubchem assays: 1072 ]
[9] = biological target: T4, Tyrosine-protein phosphatase non-receptor type 22 (Homo sapiens, UniProt Q9Y2R2); type: functional
T4 sequence (Q9Y2R2 whole entry): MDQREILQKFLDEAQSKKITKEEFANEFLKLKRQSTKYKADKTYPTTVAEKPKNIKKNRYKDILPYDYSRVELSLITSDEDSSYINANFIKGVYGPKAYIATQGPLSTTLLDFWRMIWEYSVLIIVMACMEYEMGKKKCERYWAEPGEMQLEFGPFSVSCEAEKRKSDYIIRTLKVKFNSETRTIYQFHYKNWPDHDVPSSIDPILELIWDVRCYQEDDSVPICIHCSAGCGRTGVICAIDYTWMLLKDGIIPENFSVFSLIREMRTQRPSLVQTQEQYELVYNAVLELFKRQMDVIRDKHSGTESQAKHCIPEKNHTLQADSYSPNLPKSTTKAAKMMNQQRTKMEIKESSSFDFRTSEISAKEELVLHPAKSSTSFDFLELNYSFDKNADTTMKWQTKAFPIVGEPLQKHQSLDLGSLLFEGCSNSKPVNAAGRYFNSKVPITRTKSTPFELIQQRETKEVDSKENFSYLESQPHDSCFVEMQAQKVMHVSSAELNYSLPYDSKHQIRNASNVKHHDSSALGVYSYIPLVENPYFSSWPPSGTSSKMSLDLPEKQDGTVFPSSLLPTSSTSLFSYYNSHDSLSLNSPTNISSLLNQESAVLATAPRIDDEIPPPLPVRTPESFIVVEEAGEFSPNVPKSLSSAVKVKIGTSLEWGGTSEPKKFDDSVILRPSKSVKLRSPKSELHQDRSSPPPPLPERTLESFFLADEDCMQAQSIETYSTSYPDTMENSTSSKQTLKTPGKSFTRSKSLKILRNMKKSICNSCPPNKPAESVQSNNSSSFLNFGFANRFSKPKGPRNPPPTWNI

[10] = biological target: Eukaryotic translation initiation factor 4E (Mus musculus, UniProt P63073); assay: blockers of eIF4G binding by eIF4E – biochemical, TR-FRET, dose response (AID 855); type: functional;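 also: potency for disrupting eIF4E binding to eIF4GI seen as loss of FRET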
[11] = biological target: T5, Tyrosine-protein phosphatase non-receptor type 7 (Homo sapiens, UniProt P35236); type: functional
T5 sequence (P35236 whole entry): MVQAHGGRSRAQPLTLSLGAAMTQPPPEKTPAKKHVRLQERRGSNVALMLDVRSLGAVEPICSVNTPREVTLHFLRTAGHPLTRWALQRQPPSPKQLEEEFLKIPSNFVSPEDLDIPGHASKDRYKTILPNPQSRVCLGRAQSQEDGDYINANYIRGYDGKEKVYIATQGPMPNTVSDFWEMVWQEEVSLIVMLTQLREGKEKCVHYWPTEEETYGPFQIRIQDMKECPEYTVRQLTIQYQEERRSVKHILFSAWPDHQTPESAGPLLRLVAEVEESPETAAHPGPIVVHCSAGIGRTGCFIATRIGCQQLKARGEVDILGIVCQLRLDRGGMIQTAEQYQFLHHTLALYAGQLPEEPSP

[12] = biological target: T2, Dual specificity protein phosphatase 6; assay: inhibition of rat DUSP6 enzyme activity – biochemical, in vitro, primary screen (AID 425)
[13] = biological target: T4, Tyrosine-protein phosphatase non-receptor type 22; type: functional; remark: listed apart in the source
[14] = biological target: T5, Tyrosine-protein phosphatase non-receptor type 7; type: functional; remark: listed apart in the source
[15] = biological target: Heat shock 70 kDa protein 1A (Homo sapiens, UniProt P0DMV8); assay: inhibition of Hsp70 binding activity – biochemical, fluorescence polarization, SAR follow-up (AID 1072)
[16] = CCR5-tropic HIV-1 fusion blockers – cell-based, CCR5-tropic Env, dose response (AID 2279); type: functional
[17] = biological target: Glyceraldehyde-3-phosphate dehydrogenase (Homo sapiens, UniProt P04406)
[18] = biological target: T2, Dual specificity protein phosphatase 6; type: functional
Estrogen receptor beta = Estrogen receptor beta (Homo sapiens, UniProt Q92731); assay: blockers of SRC-3 recruitment to ERβ – biochemical, ELISA, streptavidin-HRP readout, orthogonal assay, confirmation (AID 1060)
[19] = biological target: T3, Voltage-gated N-type calcium channel alpha-1B subunit/Amyloid beta A4 precursor protein-binding family A member 1; type: protein assay; remark: listed apart in the source
Genome polyprotein = Genome polyprotein (Hepatitis C virus, UniProt Q2Q167); assay: disruption of hepatitis C core self-association – biochemical, TR-FRET, dose response (AID 2159); design: species or system Hepacivirus hominis;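 also: blocks dimerization of HCV core protein measured by TR-FRET between tagged core106 pairs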
Genome polyprotein, sequence (Q2Q167 whole entry): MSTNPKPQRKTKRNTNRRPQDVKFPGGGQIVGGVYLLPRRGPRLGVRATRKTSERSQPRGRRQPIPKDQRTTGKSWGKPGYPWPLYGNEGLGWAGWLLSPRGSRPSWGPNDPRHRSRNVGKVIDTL

T3 sequence (Q00975 whole entry): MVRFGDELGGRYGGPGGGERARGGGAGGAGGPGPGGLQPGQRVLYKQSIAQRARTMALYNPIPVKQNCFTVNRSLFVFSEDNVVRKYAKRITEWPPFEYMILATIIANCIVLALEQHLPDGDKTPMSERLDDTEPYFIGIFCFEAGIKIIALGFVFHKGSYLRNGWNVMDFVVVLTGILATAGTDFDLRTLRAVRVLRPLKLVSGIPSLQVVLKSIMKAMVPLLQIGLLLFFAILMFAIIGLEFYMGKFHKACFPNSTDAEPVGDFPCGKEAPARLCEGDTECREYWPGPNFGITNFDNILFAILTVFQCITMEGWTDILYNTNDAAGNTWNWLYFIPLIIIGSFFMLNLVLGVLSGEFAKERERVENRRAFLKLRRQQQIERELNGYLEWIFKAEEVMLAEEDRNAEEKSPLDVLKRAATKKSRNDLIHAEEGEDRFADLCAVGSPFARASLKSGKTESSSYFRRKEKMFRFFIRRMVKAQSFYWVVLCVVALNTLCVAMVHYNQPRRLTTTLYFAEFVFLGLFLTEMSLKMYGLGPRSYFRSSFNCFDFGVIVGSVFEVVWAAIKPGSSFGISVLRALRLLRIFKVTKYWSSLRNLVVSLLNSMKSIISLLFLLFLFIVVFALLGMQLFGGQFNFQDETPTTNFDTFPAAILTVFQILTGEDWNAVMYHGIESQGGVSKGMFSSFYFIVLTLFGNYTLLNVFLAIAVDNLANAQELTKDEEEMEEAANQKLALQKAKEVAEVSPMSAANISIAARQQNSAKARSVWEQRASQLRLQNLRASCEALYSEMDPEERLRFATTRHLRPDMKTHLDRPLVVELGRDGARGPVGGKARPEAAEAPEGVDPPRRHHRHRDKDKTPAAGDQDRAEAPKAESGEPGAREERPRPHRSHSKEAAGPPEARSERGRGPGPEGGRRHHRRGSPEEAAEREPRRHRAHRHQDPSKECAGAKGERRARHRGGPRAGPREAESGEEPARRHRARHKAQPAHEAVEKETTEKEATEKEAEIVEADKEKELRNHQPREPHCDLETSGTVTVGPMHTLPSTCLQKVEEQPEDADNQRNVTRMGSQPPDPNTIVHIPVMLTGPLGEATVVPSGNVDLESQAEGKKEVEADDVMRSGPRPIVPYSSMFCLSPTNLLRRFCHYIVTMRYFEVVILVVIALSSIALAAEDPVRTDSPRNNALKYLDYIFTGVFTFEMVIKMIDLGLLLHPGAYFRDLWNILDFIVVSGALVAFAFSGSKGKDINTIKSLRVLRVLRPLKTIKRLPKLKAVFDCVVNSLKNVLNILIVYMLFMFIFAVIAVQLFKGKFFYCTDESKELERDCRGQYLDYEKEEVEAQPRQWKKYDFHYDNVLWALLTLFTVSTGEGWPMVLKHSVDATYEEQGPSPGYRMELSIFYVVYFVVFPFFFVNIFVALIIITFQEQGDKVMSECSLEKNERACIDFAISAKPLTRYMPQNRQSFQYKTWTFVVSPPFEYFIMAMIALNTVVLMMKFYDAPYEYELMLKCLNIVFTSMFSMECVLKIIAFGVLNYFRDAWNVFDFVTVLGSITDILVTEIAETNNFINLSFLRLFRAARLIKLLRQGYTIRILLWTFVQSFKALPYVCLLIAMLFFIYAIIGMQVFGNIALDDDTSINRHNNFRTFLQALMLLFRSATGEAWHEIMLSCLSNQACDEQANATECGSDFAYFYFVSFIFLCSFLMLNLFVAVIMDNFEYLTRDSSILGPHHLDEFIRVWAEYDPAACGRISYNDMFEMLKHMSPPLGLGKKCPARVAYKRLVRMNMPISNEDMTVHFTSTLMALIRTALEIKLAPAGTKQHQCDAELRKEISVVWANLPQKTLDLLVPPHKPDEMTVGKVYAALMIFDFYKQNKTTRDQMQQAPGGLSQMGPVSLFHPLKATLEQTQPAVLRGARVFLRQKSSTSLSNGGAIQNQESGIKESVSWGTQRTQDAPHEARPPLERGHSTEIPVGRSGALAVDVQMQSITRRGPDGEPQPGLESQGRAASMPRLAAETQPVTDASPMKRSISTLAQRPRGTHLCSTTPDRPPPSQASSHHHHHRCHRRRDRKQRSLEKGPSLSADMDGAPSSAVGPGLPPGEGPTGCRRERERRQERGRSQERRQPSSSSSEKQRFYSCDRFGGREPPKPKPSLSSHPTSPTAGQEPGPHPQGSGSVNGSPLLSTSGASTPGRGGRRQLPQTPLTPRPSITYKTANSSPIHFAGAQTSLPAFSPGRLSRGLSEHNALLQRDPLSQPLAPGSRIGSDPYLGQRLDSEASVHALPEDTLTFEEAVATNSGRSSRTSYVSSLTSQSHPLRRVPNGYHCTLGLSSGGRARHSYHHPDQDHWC
T3 sequence (Q02410 whole entry): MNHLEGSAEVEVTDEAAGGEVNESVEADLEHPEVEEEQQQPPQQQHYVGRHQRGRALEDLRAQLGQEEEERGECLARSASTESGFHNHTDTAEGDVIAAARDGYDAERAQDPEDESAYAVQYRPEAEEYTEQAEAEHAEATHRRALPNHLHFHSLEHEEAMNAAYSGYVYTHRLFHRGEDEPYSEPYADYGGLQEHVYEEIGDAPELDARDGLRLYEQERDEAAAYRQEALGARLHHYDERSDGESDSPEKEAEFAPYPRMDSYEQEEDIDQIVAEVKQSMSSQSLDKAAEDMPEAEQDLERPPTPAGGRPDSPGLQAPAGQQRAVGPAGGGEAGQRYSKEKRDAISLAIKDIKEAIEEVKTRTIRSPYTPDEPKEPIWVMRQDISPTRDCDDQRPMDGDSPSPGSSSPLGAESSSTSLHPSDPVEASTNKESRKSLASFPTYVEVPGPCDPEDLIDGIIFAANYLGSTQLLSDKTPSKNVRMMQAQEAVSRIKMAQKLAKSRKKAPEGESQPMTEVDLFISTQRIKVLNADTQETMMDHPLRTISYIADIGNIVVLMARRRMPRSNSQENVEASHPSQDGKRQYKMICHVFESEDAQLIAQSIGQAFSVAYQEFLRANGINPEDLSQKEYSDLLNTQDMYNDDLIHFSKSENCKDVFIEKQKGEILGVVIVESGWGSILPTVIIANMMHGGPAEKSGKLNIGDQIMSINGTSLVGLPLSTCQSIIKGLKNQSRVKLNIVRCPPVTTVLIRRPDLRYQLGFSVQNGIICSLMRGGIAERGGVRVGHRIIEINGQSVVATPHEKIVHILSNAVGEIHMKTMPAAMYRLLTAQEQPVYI
Epstein-Barr nuclear antigen 1, sequence (P03211 whole entry): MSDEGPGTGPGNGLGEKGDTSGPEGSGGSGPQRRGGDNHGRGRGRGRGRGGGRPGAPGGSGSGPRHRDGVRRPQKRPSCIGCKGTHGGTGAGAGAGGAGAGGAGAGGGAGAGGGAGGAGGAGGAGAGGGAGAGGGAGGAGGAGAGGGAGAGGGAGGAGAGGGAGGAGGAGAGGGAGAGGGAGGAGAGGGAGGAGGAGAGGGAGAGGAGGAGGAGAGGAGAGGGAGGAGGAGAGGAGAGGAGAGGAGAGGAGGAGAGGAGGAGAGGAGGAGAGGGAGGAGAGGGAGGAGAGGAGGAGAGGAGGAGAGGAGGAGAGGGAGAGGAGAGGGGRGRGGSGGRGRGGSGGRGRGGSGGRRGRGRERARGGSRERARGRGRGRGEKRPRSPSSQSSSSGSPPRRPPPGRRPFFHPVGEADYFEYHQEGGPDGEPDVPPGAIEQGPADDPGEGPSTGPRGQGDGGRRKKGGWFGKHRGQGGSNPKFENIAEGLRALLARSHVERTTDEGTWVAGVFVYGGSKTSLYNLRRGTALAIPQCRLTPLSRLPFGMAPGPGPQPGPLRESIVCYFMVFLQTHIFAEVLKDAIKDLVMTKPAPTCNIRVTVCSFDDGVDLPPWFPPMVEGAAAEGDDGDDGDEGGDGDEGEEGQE
Lytic switch protein BZLF1, sequence (P03206 whole entry): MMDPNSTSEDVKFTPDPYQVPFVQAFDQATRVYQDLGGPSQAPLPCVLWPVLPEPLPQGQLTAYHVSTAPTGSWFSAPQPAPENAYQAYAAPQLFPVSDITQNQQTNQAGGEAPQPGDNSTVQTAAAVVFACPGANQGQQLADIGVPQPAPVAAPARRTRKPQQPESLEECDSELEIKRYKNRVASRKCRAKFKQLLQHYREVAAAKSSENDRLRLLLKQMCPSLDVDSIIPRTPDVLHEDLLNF
Estrogen receptor beta, sequence (Q92731 whole entry): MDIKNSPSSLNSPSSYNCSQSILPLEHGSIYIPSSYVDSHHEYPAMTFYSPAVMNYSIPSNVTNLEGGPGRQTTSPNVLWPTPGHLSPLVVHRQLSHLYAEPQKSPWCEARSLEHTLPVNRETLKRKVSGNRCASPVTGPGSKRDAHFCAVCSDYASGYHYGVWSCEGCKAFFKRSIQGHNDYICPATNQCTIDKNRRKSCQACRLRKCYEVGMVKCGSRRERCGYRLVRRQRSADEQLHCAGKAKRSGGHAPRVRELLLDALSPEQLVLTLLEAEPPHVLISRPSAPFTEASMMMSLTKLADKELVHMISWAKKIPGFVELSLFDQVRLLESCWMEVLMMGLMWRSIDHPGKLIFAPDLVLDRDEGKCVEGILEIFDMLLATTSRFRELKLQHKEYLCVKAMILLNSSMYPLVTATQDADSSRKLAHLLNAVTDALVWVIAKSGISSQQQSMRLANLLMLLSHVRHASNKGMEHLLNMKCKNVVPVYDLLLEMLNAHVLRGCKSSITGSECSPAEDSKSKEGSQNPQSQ
Glyceraldehyde-3-phosphate dehydrogenase, sequence (P04406 whole entry): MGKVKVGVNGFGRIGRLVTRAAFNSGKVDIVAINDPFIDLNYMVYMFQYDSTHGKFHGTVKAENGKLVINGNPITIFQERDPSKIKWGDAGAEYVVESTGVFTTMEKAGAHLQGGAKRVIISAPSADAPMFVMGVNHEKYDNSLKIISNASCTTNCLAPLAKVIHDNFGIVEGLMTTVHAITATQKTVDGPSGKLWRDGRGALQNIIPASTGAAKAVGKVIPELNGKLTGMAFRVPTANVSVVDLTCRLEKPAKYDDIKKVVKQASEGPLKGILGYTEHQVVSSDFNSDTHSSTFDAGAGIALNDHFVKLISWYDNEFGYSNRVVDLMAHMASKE

- IC50 [1]: > 5.47 µM (active)
- IC50 [2]: > 50 µM (not active)
- IC50 [3]: > 111 µM (not active)
Compound: CCOC(=O)c1ccc(NC(=O)C2CC(=O)Nc3nc4ccccc4n32)cc1 (configuration not stated)

Compound: Oc1nc2ccccc2c(O)c1O
- IC50 [4]: 13.6 µM (not active)

Compound: O=C(O)C1Nc2c(O)cccc2C2C=CCC12 (configuration not stated)
- IC50 [5]: 8.5 µM (active)
- CC50 [6]: > 40 µM (active)
- IC50 (NS3): 3.43 µM (active)
- IC50 [7]: 8.61 µM (active)
- IC50 [8]: 62 µM (active)
- IC50 [9]: 6.84 µM (active)
- IC50 [10]: 12.7 µM (active)
- IC50 [11]: 503 nM (active)
- IC50 [12]: > 10 µM (not active)
- IC50 [13]: 8.35 µM (active)
- IC50 [14]: 11.2 µM (active)
- IC50 [15]: 9.87 µM (active)
- IC50 [16]: 29.4 µM (active)
- IC50 [17]: 47.7 µM (active)
- IC50 [18]: 7.38 µM (active) and 14.6 µM (active)
- IC50 (Estrogen receptor beta): > 50 µM (not active)
- IC50 [19]: 4.98 µM (active)
- IC50 (Genome polyprotein): > 49.8 µM (not active)
